The subject of test [1] is acute myeloid leukemia cell line MOLM13. Put plainly: Growth of cancer cells, Cell Titer-Glo GI50, MOLM13. The format is cell-based. (In ATP-based viability assays light output follows the ATP content of the culture.)
The test system of test [2] is acute myeloid leukemia cell line MOLM14. Put plainly: Growth of cancer cells, Cell Titer-Glo GI50, MOLM14. The format is cell-based. The following applies: read-out: GI50 MOLM 14.
The target of a further test is CDK9/CyclinT1 protein (Homo sapiens (Human), UniProt P50750). Put plainly: Enzyme activity assay of CDK9 protein inhibition in vitro, CDK9/CyclinT1.
CDK9/CyclinT1 protein, sequence (P50750 whole entry): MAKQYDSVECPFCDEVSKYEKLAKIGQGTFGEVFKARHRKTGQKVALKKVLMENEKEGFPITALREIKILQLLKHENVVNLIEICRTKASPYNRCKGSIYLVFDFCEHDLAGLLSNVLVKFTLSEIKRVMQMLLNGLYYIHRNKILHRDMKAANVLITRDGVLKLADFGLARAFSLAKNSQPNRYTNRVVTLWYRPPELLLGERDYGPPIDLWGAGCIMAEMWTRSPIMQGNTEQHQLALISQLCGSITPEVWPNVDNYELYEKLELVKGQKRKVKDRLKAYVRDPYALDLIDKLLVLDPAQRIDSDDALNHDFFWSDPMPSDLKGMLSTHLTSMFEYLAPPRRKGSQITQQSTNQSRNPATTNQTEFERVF
CDK9/CyclinT1 protein, sequence (O60563 whole entry partner): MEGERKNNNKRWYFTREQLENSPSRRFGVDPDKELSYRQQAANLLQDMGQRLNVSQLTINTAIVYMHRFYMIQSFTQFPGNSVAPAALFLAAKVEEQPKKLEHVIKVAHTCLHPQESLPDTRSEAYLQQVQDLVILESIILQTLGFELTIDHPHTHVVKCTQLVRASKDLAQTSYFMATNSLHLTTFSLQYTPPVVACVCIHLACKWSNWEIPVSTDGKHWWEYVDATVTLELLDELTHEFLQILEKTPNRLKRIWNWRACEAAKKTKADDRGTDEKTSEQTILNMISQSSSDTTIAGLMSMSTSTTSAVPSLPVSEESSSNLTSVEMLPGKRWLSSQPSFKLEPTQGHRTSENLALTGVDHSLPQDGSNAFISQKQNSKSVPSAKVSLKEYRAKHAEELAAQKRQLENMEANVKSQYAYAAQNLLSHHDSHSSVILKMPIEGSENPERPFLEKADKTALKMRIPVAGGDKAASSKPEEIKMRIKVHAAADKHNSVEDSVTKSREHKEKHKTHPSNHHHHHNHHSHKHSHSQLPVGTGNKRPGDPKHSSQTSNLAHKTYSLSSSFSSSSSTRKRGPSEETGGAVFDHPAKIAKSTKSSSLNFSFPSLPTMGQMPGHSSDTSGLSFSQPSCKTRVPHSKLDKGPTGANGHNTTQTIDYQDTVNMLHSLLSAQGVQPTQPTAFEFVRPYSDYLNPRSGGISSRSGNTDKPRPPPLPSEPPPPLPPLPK
For test [3], the system named is acute myeloid leukemia cell line OCI-AML-3. Put plainly: Growth of cancer cells, Cell Titer-Glo GI50, OCI-AML-3. The class given is cell-based. The note with it: Homo sapiens, read-out: GI50 AML3.
Test [4] has as its system human chronic myeloid leukemia cell K562. Put plainly: Growth of cancer cells, Cell Titer-Glo GI50, K562. The note with it: read-out: GI50 K562. The class given is cell-based.
The test system of test [5] is acute myeloid leukemia cell line MV4-11. Put plainly: Growth of cancer cells, Cell Titer-Glo GI50, MV4-11. The following applies: read-out: GI50 MV4-11.
Test [6] concerns histiocytic lymphoma U-937. Put plainly: Growth of cancer cells, Cell Titer-Glo GI50, U937. The format is cell-based. The following applies: Homo sapiens, read-out: GI50 U937.
Test [7] deals with human ovarian granulosa tumor cell COV434. The test can be described thus: Growth of cancer cells, Cell Titer-Glo GI50, COV434. The class given is cell-based. The following applies: Homo sapiens, COV434, 72 h, read-out: GI50 COV434.
The subject of test [8] is MOLM13 drug resistant strain MOLM13 BR1. The test can be described thus: Growth of drug resistant strain MOLM13 BR1, Cell Titer-Glo GI50. The class given is cell-based. The note with it: 72 hours.
Setting [9] is: Homo sapiens, MOLM-13, incubated for 72 hours, Cell Titer-Glo, Table 1, read-out: GI50 MOLM 13.
[10] abbreviates: Homo sapiens, MOLM-14, incubated for 72 hours, Cell Titer-Glo.
The mark [11] stands for this setting: Homo sapiens, MOLM-13, 72 h, read-out: GI50 MOLM 13.
Setting [12] is: incubated for 72 hours, Cell Titer-Glo.
The mark [13] stands for this setting: Homo sapiens, K562, incubated for 72 hours, Cell Titer-Glo.
Setting [14] is: U-937, incubated for 72 hours, Cell Titer-Glo.
The mark [15] stands for this setting: Homo sapiens, MOLM-13, incubated for 72 hours, Cell Titer-Glo, Table 2, read-out: GI50 MOLM13.
Setting [16] is: Homo sapiens, MOLM-13, BAY1251152-resistant MOLM13 strain.

Read-outs that look alike come from different tables or passages of the source.

By GI50 is commonly meant the concentration that inhibits growth by half.

On to `COCCN[C@H]1CC[C@H](Nc2ncc(Cl)c(-c3ccc4c(c3)C(C)(C)NC4=O)n2)CC1` [Compound 22, 5-(5-chloro-2-(((1r,4r)-4-((2-methoxyethyl)amino)cyclohexyl)amino)pyrimidin-4-yl)-3,3-dimethylisoindoline-1-one], for which the GI50 in test [1] (setting [9]) was determined as 28 nM; in test [2] (setting [10]), 41 nM. The same molecule showed an IC50 at CDK9/CyclinT1 protein of 13 nM.

Consider `CC1(C)CNC(=O)c2ccc(-c3ccnc(Nc4cccc(CS(C)(=O)=O)c4)n3)cc21` [Compound 28, 4,4-dimethyl-6-(2-((3-((methylsulfonyl)methyl)phenyl)amino)pyrimidin-4-yl)-3,4-dihydroisoquinolin-1(2H)-one], for which the GI50 was determined as 2 nM in [3] (72 h); 10 nM in test [4] (Homo sapiens, K562, 72 h); 2 nM in test [5] (Homo sapiens, MV4-11, 72 h); 1 nM in test [1] (setting [11]); 2 nM in test [2] (Homo sapiens, MOLM-14, 72 h); 2 nM in test [6] (U-937, 72 h).

`CN(C)S(=O)(=O)c1cccc(Nc2nccc(-c3ccc4c(c3)C(C)(C)CNC4=O)n2)c1` [Compound 29, 3-((4-(4,4-dimethyl-1-oxo1,2,3,4-tetrahydroisoquinolin-6-yl)pyrimidin-2-yl)amino)-N,N-dimethylbenzenesulfonamide]: the GI50 was 153 nM in [3] (setting [12]); 942 nM in test [4] (setting [13]); 57 nM in test [5] (Homo sapiens, MV4-11, 72 h); 35 nM in [1] (setting [9]); 59 nM in [2] (setting [10]); 186 nM in [6] (setting [14]). The molecule also had an IC50 on CDK9/CyclinT1 protein of 27 nM.

For `CN1CCC(NC(=O)c2cccc(Nc3nccc(-c4ccc5c(c4)C(C)(C)CNC5=O)n3)c2)CC1` [Compound 33, 3-((4-(4,4-dimethyl-1-oxo-1,2,3,4-tetrahydroisoquinolin-6-yl)pyrimidin-2-yl)amino)-N-(1-methylpiperidin-4-yl)benzamide], the GI50 in [3] (setting [12]) came to 48 nM; in test [4] (setting [13]), 77 nM; in test [5] (Homo sapiens, MV4-11, 72 h), 6 nM; in [1] (setting [9]), 10 nM; in [6] (setting [14]) it was 63 nM; in test [7] it was 8 nM.

Take `CC1(C)CNC(=O)c2ccc(-c3ccnc(Nc4ccc(F)c(CS(C)(=O)=O)c4)n3)cc21` [Compound 36, 6-(2-((4-fluoro-3-((methylsulfonyl)methyl)phenyl)amino)pyrimidin-4-yl)-4,4-dimethyl-3,4-dihydroisoquinolin-1(2H)-one]: the GI50 in test [4] (Homo sapiens, K562, 72 h) is 9 nM; in [5] (Homo sapiens, MV4-11, 72 h) it was 3 nM; in [1] (setting [11]) it was under 1 nM; in test [2] (Homo sapiens, MOLM-14, 72 h), 2 nM.

With `CC1(C)CNC(=O)c2ccc(-c3ccnc(Nc4cccc(S(C)(=N)=O)c4)n3)cc21` (stereo not drawn) [Compound 38], the 50% growth inhibitory concentration (GI50) in test [4] (setting [13]) came out at 95 nM; in [5] (Homo sapiens, MV4-11, 72 h), 13 nM; in test [1] (setting [9]) it was 5 nM; in test [2] (setting [10]), 16 nM.

As to `COc1ccc(Nc2nccc(-c3ccc4c(c3)C(C)(C)CNC4=O)n2)cc1CS(C)(=O)=O` [Compound 45, 6-(2-((4-methoxy-3-((methylsulfonyl)methyl)phenyl)amino)pyrimidin-4-yl)-4,4-dimethyl-3,4-dihydroisoquinolin-1(2H)-one], the values for the GI50 in test [1] (setting [9]) and in [2] (setting [10]) were 30 nM and 96 nM, respectively.

As to `CC1(C)NC(=O)c2ccc(-c3nc(Nc4ccc(F)c(CS(C)(=O)=O)c4)ncc3Cl)cc21` [Compound 51, 5-(5-chloro-2-((4-fluoro-3-((methylsulfonyl)methyl)phenyl)amino)pyrimidin-4-yl)-3,3-dimethylisoindoline-1-one], the GI50 in [2] (setting [10]) turned out to be 15 nM.

As to `CC1(C)CNC(=O)c2ccc(-c3nc(Nc4ccc(F)c(C5(S(C)(=O)=O)CC5)c4)ncc3F)cc21` [Compound 63, 6-(5-fluoro-2-((4-fluoro-3-(1-(methylsulfonyl)cyclopropyl)phenyl)amino)pyrimidin-4-yl)-4,4-dimethyl-3,4-dihydroisoquinolin-1(2H)-one], the results for the GI50 in [1] (setting [9]) and in [2] (setting [10]) were 19 nM and 44 nM, respectively.

Regarding `CN1CCN(c2cc(Nc3ncc(F)c(-c4ccc5c(c4)C(C)(C)CNC5=O)n3)ccc2F)CC1` [Compound 72, 6-(5-fluoro-2-((4-fluoro-3-(4-methylpiperazin-1-yl)phenyl)amino)pyrimidin-4-yl)-4,4-dimethyl-3,4-dihydroisoquinolin-1(2H)-one], the values for the GI50 in test [1] (setting [9]) and in test [2] (setting [10]) were under 1 nM and 5.5 nM, respectively. This molecule also registered an IC50 against CDK9/CyclinT1 protein of 15 nM.

`CN1CCN(c2cc(F)cc(Nc3ncc(F)c(-c4ccc5c(c4)C(C)(C)CNC5=O)n3)c2)CC1` [Compound 73, 6-(5-fluoro-2-((3-fluoro-5-(4-methylpiperazin-1-yl)phenyl)amino)pyrimidin-4-yl)-4,4-dimethyl-3,4-dihydroisoquinolin-1(2H)-one]: the GI50 was 26 nM in [4] (setting [13]); under 1 nM in test [1] (setting [9]); 1.64 nM in test [1] (setting [15]); under 1 nM in test [2] (setting [10]); 0.345 nM in [8] (setting [16]).

For the molecule `CN1CCN(c2cc(Nc3ncc(Cl)c(-c4ccc5c(c4)C(C)(C)CNC5=O)n3)ccc2F)CC1` [Compound 75, 6-(5-chloro-2-((4-fluoro-3-(4-methylpiperazin-1-yl)phenyl)amino)pyrimidin-4-yl)-4,4-dimethyl-3,4-dihydroisoquinolin-1(2H)-one], the GI50 came out at 33 nM in test [1] (setting [9]) and 110 nM in test [2] (setting [10]).

As to `CC(C)N1CCN(c2cc(Nc3ncc(F)c(-c4ccc5c(c4)C(C)(C)CNC5=O)n3)ccc2F)CC1` [Compound 80, 6-(5-fluoro-2-((4-fluoro-3-(4-isopropylpiperazin-1-yl)phenyl)amino)pyrimidin-4-yl)-4,4-dimethyl-3,4-dihydroisoquinolin-1(2H)-one], the 50% growth inhibitory concentration (GI50) in [4] (setting [13]) worked out at 15 nM; in test [1] (setting [9]), 3.3 nM; in [1] (setting [15]), 11.6 nM; in [2] (setting [10]), 7.2 nM; in test [8] (setting [16]), 12.3 nM.

On to `CC(=O)N[C@@H]1CCC[C@H](C(=O)Nc2cc(-c3ccc4c(c3)C(C)(C)CNC4=O)c(Cl)cn2)C1` [Compound 96, (1S,3R)-3-acetylamino-N-(5-chloro-4-(4,4-dimethyl-1-oxo-1,2,3,4-tetrahydroisoquinolin-6-yl)pyridin-2-yl)cyclohexyl-1-formamide], for which the GI50 in [4] (setting [12]) worked out at 72 nM; in [5] (setting [12]), 9 nM; in test [1] (incubated for 72 hours, Cell Titer-Glo, Table 1, read-out: GI50 MOLM 13), 8 nM; in [2] (setting [12]), 17 nM; in [8] (BAY1251152-resistant MOLM13 strain), 5.6 nM. Besides, on CDK9/CyclinT1 protein (read-out: CDK9/CyclinT1 Protein activity (IC50)), the IC50 came out at 0.52 nM.

In the case of `CC1(C)CNC(=O)c2ccc(-c3ccnc(N[C@@H]4CCCN(S(C)(=O)=O)C4)n3)cc21` [Compound 104], the GI50 in test [5] (Homo sapiens, MV4-11, 72 h) was found to be 34 nM; in test [2] (setting [10]) it was 10 nM. This molecule also showed an IC50 at CDK9/CyclinT1 protein of 0.9 nM.

Turning to `CC1(C)CNC(=O)c2ccc(-c3ccnc(NC4CCN(S(C)(=O)=O)CC4)n3)cc21` [Compound 105, 4,4-dimethyl-6-(2-((1-(methylsulfonyl)piperidin-4-yl)amino)pyrimidin-4-yl)-3,4-dihydroisoquinolin-1(2H)-one], the GI50 in test [5] (Homo sapiens, MV4-11, 72 h) is 82 nM; in test [2] (setting [10]), 43 nM. This molecule also showed an IC50 against CDK9/CyclinT1 protein of 15 nM.

Molecule `CC1(C)CNC(=O)c2ccc(-c3ccnc(N[C@H]4CC[C@H](CC(=O)O)CC4)n3)cc21` [Compound 106] registered an IC50 at CDK9/CyclinT1 protein of 10.4 nM.

The values are drawn from patent US20230416221A1, “DIHYDROISOQUINOLINONE AND ISOINDOLINONE DERIVATIVES AND USES THEREOF” (HEFEI INSTITUTES OF PHYSICAL SCIENCE, CHINESE ACADEMY OF …, priority 2020, published 2023).
